{
  "source": "patent US12421193B2",
  "about": "“GPR52 modulators and methods of use” (Neurocrine Biosciences, Inc., priority 2020, dated 2025)",
  "note": "pEC50: −log10 of the molar value. Structures can show the parent of a compound that is named as a salt.",
  "data": [
    {"molecular_target": "T1, recombinant human GPR52 (Homo sapiens, UniProt Q9Y2T5)", "T1 construct": "expressed in transfected cells", "T1 sequence (Q9Y2T5 whole entry)": "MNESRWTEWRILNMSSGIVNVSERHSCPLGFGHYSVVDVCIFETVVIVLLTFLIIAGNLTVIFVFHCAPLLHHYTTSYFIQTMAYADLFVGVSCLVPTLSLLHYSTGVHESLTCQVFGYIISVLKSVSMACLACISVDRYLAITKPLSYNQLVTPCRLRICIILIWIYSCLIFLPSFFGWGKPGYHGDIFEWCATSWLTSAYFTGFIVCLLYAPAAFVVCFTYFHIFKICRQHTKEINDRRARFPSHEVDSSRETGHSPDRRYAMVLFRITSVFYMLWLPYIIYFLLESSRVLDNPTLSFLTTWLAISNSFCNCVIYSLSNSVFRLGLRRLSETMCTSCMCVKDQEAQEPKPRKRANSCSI", "assay": "TR-FRET cAMP assay (LANCE Ultra cAMP Kit), GPR52 activity", "format": "cell-based", "details": "Flp-In-CHO cells stably expressing recombinant human GPR52; cAMP production, normalized to the positive control", "protocol": "TR-FRET cAMP assays were performed using commercially available assay kits (LANCE™ Ultra cAMP Kit). Controls and compounds were solubilized in DMSO using ½ log dilution to generate duplicate 10-point dose response curves in 384-well polypropylene compound plates. Sixty nanoliters of the diluted compounds were transferred into 384-well NBS assay plates and further diluted to 1× with the addition of 2000 cells per well. Flp-In™—CHO cells that stably express recombinant human GPR52.\nCells were harvested with cell stripper and resuspended in Stimulation Buffer (5 mM HEPES, 0.1% bovine serum albumin (BSA), 0.5 mM IBMX, pH 7.4). After thirty minutes incubation at room temperature, detection reagents were added to each well. Plates were then incubated for 30 minutes at room temperature. The LANCE™ Ultra cAMP assay uses time-resolved fluorescence resonance energy transfer (TR-FRET) to detect cAMVP production; this signal was quantified using a Pherastar multi-mode plate reader.\nDose-response curves were generated from the fluorescence counts normalized to the positive control. E EC50 values were obtained using a nonlinear regression curve-fitting program.", "values": [
      {"smiles": "Cc1cc(-c2cc(COc3ccc(C(F)(F)F)cc3)ccn2)ccc1C(N)=O", "note": "[Example 1, 4-{4-[4-(trifluoromethyl)phenoxymethyl]pyridin-2-yl}2-methyl-benzamide hydrochloride]", "pEC50": "7.00 to 7.60"},
      {"smiles": "Cc1cc(-c2cc(COc3cccc(C(F)(F)F)c3)ccn2)ccc1C(N)=O", "note": "[Example 2, 4-{4-[3-(trifluoromethyl)phenoxymethyl]pyridin-2-yl}-2-methyl benzamide]", "pEC50": "> 7.60"},
      {"smiles": "Cc1cc(-c2cc(COc3ccccc3C(F)(F)F)ccn2)ccc1C(N)=O", "note": "[Example 3, 4-{4-[2-(trifluoromethyl)phenoxymethyl]pyridin-2-yl}-2-methyl benzamide]", "pEC50": "6.00 to 7.00"},
      {"smiles": "Cc1cc(-c2cc(COc3ccc(C#N)c(F)c3)ccn2)ccc1C(N)=O", "note": "[Example 4, 4-[4-(4-cyano-3-fluorophenoxymethyl)pyridin-2-yl]-2-methylbenzamide hydrochloride]", "pEC50": "7.00 to 7.60"},
      {"smiles": "Cc1cc(-c2cc(COc3cccc(S(C)(=O)=O)c3)ccn2)ccc1C(N)=O", "note": "[Example 5, 4-[4-(3-methanesulfonylphenoxymethyl)pyridin-2-yl]-2-methylbenzamide]", "pEC50": "6.00 to 7.00"},
      {"smiles": "Cc1cc(-c2cc(COc3ccc(S(C)(=O)=O)cc3)ccn2)ccc1C(N)=O", "note": "[Example 6, 4-[4-(4-methanesulfonylphenoxymethyl)pyridin-2-yl]-2-methylbenzamide]", "pEC50": "6.00 to 7.00"},
      {"smiles": "Cc1cc(-c2cc(COc3ccc(F)c(C#N)c3)ccn2)ccc1C(N)=O", "note": "[Example 7, 4-[4-(3-cyano-4-fluorophenoxymethyl)pyridin-2-yl]-2-methylbenzamide]", "pEC50": "6.00 to 7.00"},
      {"smiles": "Cc1ccc(OCc2ccnc(-c3ccc(C(N)=O)c(C)c3)c2)cc1F", "note": "[Example 8, 4-[4-(3-fluoro-4-methylphenoxymethyl)pyridin-2-yl]-2-methylbenzamide]", "pEC50": "6.00 to 7.00"},
      {"smiles": "Cc1cc(-c2cc(COc3ccc(C#N)c(F)c3F)ccn2)ccc1C(N)=O", "note": "[Example 9, 4-[4-(4-cyano-2,3-difluorophenoxymethyl)pyridin-2-yl]-2-methylbenzamide]", "pEC50": "6.00 to 7.00"},
      {"smiles": "Cc1cc(-c2cc(COc3cc(F)c(C#N)c(F)c3)ccn2)ccc1C(N)=O", "note": "[Example 10, 4-[4-(4-cyano-3,5-difluorophenoxymethyl)pyridin-2-yl]-2-methylbenzamide]", "pEC50": "7.00 to 7.60"},
      {"smiles": "Cc1cc(-c2cc(COc3ccnc(C(F)(F)F)c3)ccn2)ccc1C(N)=O", "note": "[Example 11, 4-[4-({[2-(trifluoromethyl)pyridin-4-yl]oxy}methyl)pyridin-2-yl]-2-methyl benzamide]", "pEC50": "6.00 to 7.00"},
      {"smiles": "Cc1cc(-c2cc(COc3ccc(F)cc3)ccn2)ccc1C(N)=O", "note": "[Example 12, 4-[4-(4-fluorophenoxymethyl)pyridin-2-yl]-2-methylbenzamide]", "pEC50": "7.00 to 7.60"},
      {"smiles": "CC(=O)c1ccc(OCc2ccnc(-c3ccc(C(N)=O)c(C)c3)c2)cc1C", "note": "[Example 13, 4-[4-(4-acetyl-3-methylphenoxymethyl)pyridin-2-yl]-2-methylbenzamide]", "pEC50": "> 7.60"},
      {"smiles": "Cc1ccc(F)c(OCc2ccnc(-c3ccc(C(N)=O)c(C)c3)c2)c1", "note": "[Example 14, 4-[4-(2-fluoro-5-methylphenoxymethyl)pyridin-2-yl]-2-methylbenzamide]", "pEC50": "6.00 to 7.00"},
      {"smiles": "Cc1cc(-c2cc(COc3cc(F)cc(F)c3)ccn2)ccc1C(N)=O", "note": "[Example 15, 4-[4-(3,5-difluorophenoxymethyl)pyridin-2-yl]-2-methylbenzamide]", "pEC50": "7.00 to 7.60"},
      {"smiles": "Cc1cc(-c2cc(COc3cccc(CCO)c3)ccn2)ccc1C(N)=O", "note": "[Example 16, 4-{4-[3-(2-hydroxyethyl)phenoxymethyl]pyridin-2-yl}-2-methylbenzamide]", "pEC50": "6.00 to 7.00"},
      {"smiles": "COc1ccc(OCc2ccnc(-c3ccc(C(N)=O)c(C)c3)c2)cc1OC", "note": "[Example 17, 4-[4-(3,4-dimethoxyphenoxymethyl)pyridin-2-yl]-2-methylbenzamide]", "pEC50": "6.00 to 7.00"},
      {"smiles": "Cc1ccc(OCc2ccnc(-c3ccc(C(N)=O)c(C)c3)c2)cc1Cl", "note": "[Example 18, 4-[4-(3-chloro-4-methylphenoxymethyl)pyridin-2-yl]-2-methylbenzamide]", "pEC50": "> 7.60"},
      {"smiles": "COc1ccc(OCc2ccnc(-c3ccc(C(N)=O)c(C)c3)c2)c2ccccc12", "note": "[Example 19, 4-(4-{[(4-methoxynaphthalen-1-yl)oxy]methyl}pyridin-2-yl)-2-methylbenzamide]", "pEC50": "6.00 to 7.00"},
      {"smiles": "Cc1cc(-c2cc(COc3cc(Cl)cc(Cl)c3)ccn2)ccc1C(N)=O", "note": "[Example 20, 4-[4-(3,5-dichlorophenoxymethyl)pyridin-2-yl]-2-methylbenzamide]", "pEC50": "> 7.60"},
      {"smiles": "COc1ccc2ccc(OCc3ccnc(-c4ccc(C(N)=O)c(C)c4)c3)cc2c1", "note": "[Example 21, 4-(4-{[(7-methoxynaphthalen-2-yl)oxy]methyl}pyridin-2-yl)-2-methylbenzamide]", "pEC50": "7.00 to 7.60"},
      {"smiles": "COc1ccc(OCc2ccnc(-c3ccc(C(N)=O)c(C)c3)c2)c(Cl)c1", "note": "[Example 22, 4-[4-(2-chloro-4-methoxyphenoxymethyl)pyridin-2-yl]-2-methylbenzamide]", "pEC50": "> 7.60"},
      {"smiles": "CCCc1ccccc1OCc1ccnc(-c2ccc(C(N)=O)c(C)c2)c1", "note": "[Example 23, 4-[4-(2-propylphenoxymethyl)pyridin-2-yl]-2-methyl benzamide]", "pEC50": "> 7.60"},
      {"smiles": "COc1cc(Cl)cc(OCc2ccnc(-c3ccc(C(N)=O)c(C)c3)c2)c1", "note": "[Example 24, 4-[4-(3-chloro-5-methoxyphenoxymethyl)pyridin-2-yl]-2-methylbenzamide]", "pEC50": "7.00 to 7.60"},
      {"smiles": "Cc1cc(-c2cc(COc3ccccc3)ccn2)ccc1C(N)=O", "note": "[Example 25, 4-[4-(phenoxymethyl)pyridin-2-yl]-2-methylbenzamide]", "pEC50": "6.00 to 7.00"},
      {"smiles": "Cc1cc(-c2cc(COc3ccc(C#N)cc3)ccn2)ccc1C(N)=O", "note": "[Example 26, 4-[4-(4-cyanophenoxymethyl)pyridin-2-yl]-2-methylbenzamide]", "pEC50": "7.00 to 7.60"},
      {"smiles": "Cc1cc(OCc2ccnc(-c3ccc(C(N)=O)c(C)c3)c2)ccc1F", "note": "[Example 27, 4-[4-(4-fluoro-3-methylphenoxymethyl)pyridin-2-yl]-2-methylbenzamide]", "pEC50": "6.00 to 7.00"},
      {"smiles": "Cc1cc(OCc2ccnc(-c3ccc(C(N)=O)c(C)c3)c2)ccc1Cl", "note": "[Example 28, 4-[4-(4-chloro-3-methylphenoxymethyl)pyridin-2-yl]-2-methylbenzamide]", "pEC50": "6.00 to 7.00"},
      {"smiles": "Cc1cc(F)ccc1OCc1ccnc(-c2ccc(C(N)=O)c(C)c2)c1", "note": "[Example 29, 4-[4-(4-fluoro-2-methylphenoxymethyl)pyridin-2-yl]-2-methylbenzamide]", "pEC50": "6.00 to 7.00"},
      {"smiles": "COc1ccc(OCc2ccnc(-c3ccc(C(N)=O)c(C)c3)c2)cc1", "note": "[Example 30, 4-[4-(4-methoxyphenoxymethyl)pyridin-2-yl]-2-methylbenzamide]", "pEC50": "6.00 to 7.00"},
      {"smiles": "Cc1cc(-c2cc(COc3cccc4c3CCC4=O)ccn2)ccc1C(N)=O", "note": "[Example 31, 4-(4-{[(1-oxo-2,3-dihydro-1H-inden-4-yl)oxy]methyl}pyridin-2-yl)-2-methylbenzamide]", "pEC50": "6.00 to 7.00"},
      {"smiles": "CCc1ccccc1OCc1ccnc(-c2ccc(C(N)=O)c(C)c2)c1", "note": "[Example 32, 4-[4-(2-ethylphenoxymethyl)pyridin-2-yl]-2-methylbenzamide]", "pEC50": "6.00 to 7.00"},
      {"smiles": "Cc1cc(-c2cc(COc3ccc([N+](=O)[O-])cc3)ccn2)ccc1C(N)=O", "note": "[Example 33, 4-[4-(4-nitrophenoxymethyl)pyridin-2-yl]-2-methylbenzamide]", "pEC50": "> 7.60"},
      {"smiles": "Cc1cc(-c2cc(COc3ccc(Cl)c(F)c3)ccn2)ccc1C(N)=O", "note": "[Example 34, 4-[4-(4-chloro-3-fluorophenoxymethyl)pyridin-2-yl]-2-methylbenzamide]", "pEC50": "6.00 to 7.00"},
      {"smiles": "CC(=O)Nc1cccc(OCc2ccnc(-c3ccc(C(N)=O)c(C)c3)c2)c1", "note": "[Example 35, 4-[4-(3-acetamidophenoxymethyl)pyridin-2-yl]-2-methylbenzamide]", "pEC50": "6.00 to 7.00"},
      {"smiles": "Cc1ccc(OCc2ccnc(-c3ccc(C(N)=O)c(C)c3)c2)cc1", "note": "[Example 36, 4-[4-(4-methylphenoxymethyl)pyridin-2-yl]-2-methylbenzamide]", "pEC50": "6.00 to 7.00"},
      {"smiles": "CSc1ccc(OCc2ccnc(-c3ccc(C(N)=O)c(C)c3)c2)cc1", "note": "[Example 37, 4-{4-[4-(methylsulfanyl)phenoxymethyl]pyridin-2-yl}-2-methyl benzamide]", "pEC50": "7.00 to 7.60"},
      {"smiles": "Cc1cccc(OCc2ccnc(-c3ccc(C(N)=O)c(C)c3)c2)c1", "note": "[Example 38, 4-[4-(3-methylphenoxymethyl)pyridin-2-yl]-2-methyl benzamide]", "pEC50": "7.00 to 7.60"},
      {"smiles": "COc1cccc(OCc2ccnc(-c3ccc(C(N)=O)c(C)c3)c2)c1", "note": "[Example 39, 4-[4-(3-methoxyphenoxymethyl)pyridin-2-yl]-2-methylbenzamide]", "pEC50": "6.00 to 7.00"},
      {"smiles": "Cc1cc(-c2cc(COc3ccc(Cl)cc3)ccn2)ccc1C(N)=O", "note": "[Example 40, 4-[4-(4-chlorophenoxymethyl)pyridin-2-yl]-2-methylbenzamide]", "pEC50": "< 6.00"},
      {"smiles": "Cc1cc(-c2cc(COc3cccc(C)c3C)ccn2)ccc1C(N)=O", "note": "[Example 41, 4-[4-(2,3-dimethylphenoxymethyl)pyridin-2-yl]-2-methylbenzamide]", "pEC50": "6.00 to 7.00"},
      {"smiles": "Cc1cc(-c2cc(COc3ccc4ccccc4c3)ccn2)ccc1C(N)=O", "note": "[Example 42, 4-{4-[(naphthalen-2-yloxy)methyl]pyridin-2-yl}-2-methylbenzamide]", "pEC50": "7.00 to 7.60"},
      {"smiles": "CC(=O)c1cccc(OCc2ccnc(-c3ccc(C(N)=O)c(C)c3)c2)c1", "note": "[Example 43, 4-[4-(3-acetylphenoxymethyl)pyridin-2-yl]-2-methylbenzamide]", "pEC50": "6.00 to 7.00"},
      {"smiles": "Cc1ccc(OCc2ccnc(-c3ccc(C(N)=O)c(C)c3)c2)c(Cl)c1", "note": "[Example 44, 4-[4-(2-chloro-4-methylphenoxymethyl)pyridin-2-yl]-2-methylbenzamide]", "pEC50": "> 7.60"}
    ]}
  ]
}
